{"source": "patent US8017612B2", "about": "“Piperazine compound and use thereof as a HCV polymerase inhibitor” (priority 2006, dated 2011)", "key": {"[1]": {"molecular_target": "T1, HCV polymerase (NS5B) type 1b (Hepatitis C virus genotype 1b, UniProt P26663)", "T1 construct": "a region encoding NS5B (J Virol 1991 March, 65(3), 1105-13, 544 amino acids after deletion of 47 amino acids on the C-terminal); 6xHis (C); made in house; host or cells: Escherichia coli", "assay": "Assay of enzyme (HCV polymerase) inhibitory activity, type 1b enzyme", "type": "biochemical, HCV BK strain (type 1b)", "settings": "HCV polymerase inhibitory activity (IC50), 1b, type 1b enzyme 0.5 μg/ml, 25° C., 60 min", "method_in_brief": "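Polymerase activity was followed as radiolabelled UTP incorporation by E. coli-expressed, His-tagged NS5B of HCV type 1b lacking its last 47 residues. Conditions: 2 μM UTP, 50 μM other NTPs, Mg2+ buffer at pH 7.5, 25 °C for 60 min. Inhibition relative to compound-free reactions gave IC50.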"}, "[2]": {"molecular_target": "T2, HCV polymerase (NS5B) type 1a (Hepatitis C virus genotype 1a, UniProt P26664)", "T2 construct": "made in house; host or cells: Escherichia coli (by the 'similar method' of the 1b enzyme)", "assay": "Assay of enzyme (HCV polymerase) inhibitory activity, type 1a enzyme", "type": "biochemical, HCV type 1a (cloned from the blood of patients)", "settings": "HCV polymerase inhibitory activity (IC50), 1a, type 1a enzyme 1.5 μg/ml, 25° C., 60 min", "method_in_brief": "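IC50 values derive from radioactivity of newly synthesized RNA with versus without test compound. The enzyme was C-terminally truncated type 1a NS5B, 1.5 μg/ml, run 60 min at 25° C with 3H-UTP-labelled nucleotides.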"}}, "data": [{"smiles": "CCCc1ccc(CNC(=O)[C@H]2CN(c3cnc(NS(C)(=O)=O)cn3)CCN2S(=O)(=O)c2ccc(OC(F)(F)F)cc2)cc1", "note": "[Example 544, (R)-5′-methanesulfonylamino-4-(4-trifluoromethoxy-benzenesulfonyl)-3,4,5,6-tetrahydro-2H-[1,2′]bipyrazinyl-3-carboxylic acid 4-propyl-benzylamide]", "values": [{"measurement": "IC50", "setting": "[1]", "value": "< 100", "unit": "nM"}, {"measurement": "IC50", "setting": "[2]", "value": "< 100", "unit": "nM"}]}, {"smiles": "CC(C)(C)c1ccc(CNC(=O)[C@H]2CN(c3cnc(CO)cn3)CCN2S(=O)(=O)c2ccc(OC(F)(F)F)cc2)cc1", "note": "[Example 545, (R)-5′-hydroxymethyl-4-(4-trifluoromethoxy-benzenesulfonyl)-3,4,5,6-tetrahydro-2H-[1,2′]bipyrazinyl-3-carboxylic acid 4-tert-butyl-benzylamide]", "values": [{"measurement": "IC50", "setting": "[1]", "value": "< 100", "unit": "nM"}, {"measurement": "IC50", "setting": "[2]", "value": "< 100", "unit": "nM"}]}, {"smiles": "CCCc1ccc(CNC(=O)[C@H]2CN(c3ccc(O)nn3)CCN2S(=O)(=O)c2ccc(OC(F)(F)F)cc2)cc1", "note": "[Example 546, (R)-4-(6-hydroxy-pyridazin-3-yl)-1-(4-trifluoromethoxy-benzenesulfonyl)-piperazine-2-carboxylic acid 4-propyl-benzylamide]", "values": [{"measurement": "IC50", "setting": "[1]", "value": "< 100", "unit": "nM"}, {"measurement": "IC50", "setting": "[2]", "value": "< 100", "unit": "nM"}]}, {"smiles": "CCCc1ccc(CNC(=O)[C@H]2CN(c3ccc(C(N)=O)nn3)CCN2S(=O)(=O)c2ccc(OC(F)(F)F)cc2)cc1", "note": "[Example 547, 6-[(R)-3-(4-propyl-benzylcarbamoyl)-4-(4-trifluoromethoxy-benzenesulfonyl)-piperazin-1-yl]-pyridazine-3-carboxylic acid amide]", "values": [{"measurement": "IC50", "setting": "[1]", "value": "< 100", "unit": "nM"}, {"measurement": "IC50", "setting": "[2]", "value": "< 100", "unit": "nM"}]}, {"smiles": "CCCc1ccc(CNC(=O)[C@H]2CN(c3nc4c(s3)CN(C)CC4)CCN2S(=O)(=O)c2ccc(OC(F)(F)F)cc2)cc1", "note": "[Example 548, (R)-4-(5-methyl-4,5,6,7-tetrahydro-thiazolo[5,4-c]pyridin-2-yl)-1-(4-trifluoromethoxy-benzenesulfonyl)-piperazine-2-carboxylic acid 4-propyl-benzylamide]", "values": [{"measurement": "IC50", "setting": "[1]", "value": "< 100", "unit": "nM"}, {"measurement": "IC50", "setting": "[2]", "value": "< 100", "unit": "nM"}]}, {"smiles": "CCCc1ccc(CNC(=O)[C@H]2CN(c3cnc(CO)c(N)n3)CCN2S(=O)(=O)c2ccc(OC(F)(F)F)cc2)cc1", "note": "[Example 549, (R)-6′-amino-5′-hydroxymethyl-4-(4-trifluoromethoxy-benzenesulfonyl)-3,4,5,6-tetrahydro-2H-[1,2′]bipyrazinyl-3-carboxylic acid 4-propyl-benzylamide]", "values": [{"measurement": "IC50", "setting": "[1]", "value": "< 100", "unit": "nM"}, {"measurement": "IC50", "setting": "[2]", "value": "< 100", "unit": "nM"}]}, {"smiles": "CC(=O)N1CCN(S(=O)(=O)c2ccc(OC(F)(F)F)cc2)[C@@H](C(=O)NCc2ccc(C(F)(F)C(F)(F)F)cc2)C1", "note": "[Example 550, (R)-4-acetyl-1-(4-trifluoromethoxy-benzenesulfonyl)-piperazine-2-carboxylic acid 4-pentafluoroethyl-benzylamide]", "values": [{"measurement": "IC50", "setting": "[1]", "value": "100 to 1000", "unit": "nM"}, {"measurement": "IC50", "setting": "[2]", "value": "100 to 1000", "unit": "nM"}]}, {"smiles": "Cc1nnn(CC(=O)N2CCN(S(=O)(=O)c3ccc(OC(F)(F)F)cc3)[C@@H](C(=O)NCc3ccc(C(F)(F)C(F)(F)F)cc3)C2)n1", "note": "[Example 551, (R)-4-[2-(5-methyl-tetrazol-2-yl)-acetyl]-1-(4-trifluoromethoxy-benzenesulfonyl)-piperazine-2-carboxylic acid 4-pentafluoroethyl-benzylamide]", "values": [{"measurement": "IC50", "setting": "[1]", "value": "100 to 1000", "unit": "nM"}, {"measurement": "IC50", "setting": "[2]", "value": "100 to 1000", "unit": "nM"}]}, {"smiles": "Cc1nnc(NC(=O)N2CCN(S(=O)(=O)c3ccc(OC(F)(F)F)cc3)[C@@H](C(=O)NCc3ccc(C(F)(F)C(F)(F)F)cc3)C2)s1", "note": "[Example 552, (R)-4-(4-trifluoromethoxy-benzenesulfonyl)-piperazine-1,3-dicarboxylic acid 1-[(5-methyl-[1,3,4]thiadiazol-2-yl)-amide] 3-(4-pentafluoroethyl-benzylamide)]", "values": [{"measurement": "IC50", "setting": "[1]", "value": "100 to 1000", "unit": "nM"}, {"measurement": "IC50", "setting": "[2]", "value": "> 1000", "unit": "nM"}]}, {"smiles": "CCC(F)(F)c1ccc(CNC(=O)[C@H]2CN(C(=O)Nc3cc(C)ns3)CCN2S(=O)(=O)c2ccc(OC(F)(F)F)cc2)cc1", "note": "[Example 553, (R)-4-(4-trifluoromethoxy-benzenesulfonyl)-piperazine-1,3-dicarboxylic acid 3-[4-(1,1-difluoro-propyl)-benzylamide] 1-[(3-methyl-isothiazol-5-yl)-amide]]", "values": [{"measurement": "IC50", "setting": "[1]", "value": "< 100", "unit": "nM"}, {"measurement": "IC50", "setting": "[2]", "value": "< 100", "unit": "nM"}]}, {"smiles": "CCC(F)(F)c1ccc(CNC(=O)[C@H]2CN(C(=O)Nc3nccs3)CCN2S(=O)(=O)c2ccc(OC(F)(F)F)cc2)cc1", "note": "[Example 554, (R)-4-(4-trifluoromethoxy-benzenesulfonyl)-piperazine-1,3-dicarboxylic acid 3-[4-(1,1-difluoro-propyl)-benzylamide] 1-thiazol-2-ylamide]", "values": [{"measurement": "IC50", "setting": "[1]", "value": "< 100", "unit": "nM"}, {"measurement": "IC50", "setting": "[2]", "value": "100 to 1000", "unit": "nM"}]}, {"smiles": "CCC(F)(F)c1ccc(CNC(=O)[C@H]2CN(C(=O)Nc3ccnc(C(F)(F)F)c3)CCN2S(=O)(=O)c2ccc(OC(F)(F)F)cc2)cc1", "note": "[Example 555, (R)-4-(4-trifluoromethoxy-benzenesulfonyl)-piperazine-1,3-dicarboxylic acid 3-[4-(1,1-difluoro-propyl)-benzylamide] 1-[(2-trifluoromethyl-pyridin-4-yl)-amide]]", "values": [{"measurement": "IC50", "setting": "[1]", "value": "100 to 1000", "unit": "nM"}, {"measurement": "IC50", "setting": "[2]", "value": "100 to 1000", "unit": "nM"}]}, {"smiles": "CCCc1ccc(CNC(=O)[C@H]2CN(c3cnc4c(n3)NC(=O)OC4)CCN2S(=O)(=O)c2ccc(OC(F)(F)F)cc2)cc1", "note": "[Example 556, (R)-4-(2-oxo-1,4-dihydro-2H-pyrazino[2,3-d][1,3]oxazin-7-yl)-1-(4-trifluoromethoxy-benzenesulfonyl)-piperazine-2-carboxylic acid 4-propyl-benzylamide]", "values": [{"measurement": "IC50", "setting": "[1]", "value": "< 100", "unit": "nM"}, {"measurement": "IC50", "setting": "[2]", "value": "< 100", "unit": "nM"}]}, {"smiles": "CCCc1ccc(CNC(=O)[C@H]2CN(c3nc4c(s3)CNCC4)CCN2S(=O)(=O)c2ccc(OC(F)(F)F)cc2)cc1", "note": "[Example 557, (R)-4-(4,5,6,7-tetrahydro-thiazolo[5,4-c]pyridin-2-yl)-1-(4-trifluoromethoxy-benzenesulfonyl)-piperazine-2-carboxylic acid 4-propyl-benzylamide]", "values": [{"measurement": "IC50", "setting": "[1]", "value": "< 100", "unit": "nM"}, {"measurement": "IC50", "setting": "[2]", "value": "< 100", "unit": "nM"}]}, {"smiles": "CC(C)(C)c1ccc(CNC(=O)[C@H]2CN(c3cnc(CN4CCCC4)cn3)CCN2S(=O)(=O)c2ccc(OC(F)(F)F)cc2)cc1", "note": "[Example 558, (R)-5′-pyrrolidin-1-ylmethyl-4-(4-trifluoromethoxy-benzenesulfonyl)-3,4,5,6-tetrahydro-2H-[1,2′]bipyrazinyl-3-carboxylic acid 4-tert-butyl-benzylamide]", "values": [{"measurement": "IC50", "setting": "[1]", "value": "< 100", "unit": "nM"}, {"measurement": "IC50", "setting": "[2]", "value": "100 to 1000", "unit": "nM"}]}, {"smiles": "CCC(F)(F)c1ccc(CNC(=O)[C@H]2CN(c3cnc(C(=O)O)cn3)CCN2S(=O)(=O)c2ccc(OC(F)(F)F)cc2)cc1", "note": "[Example 559, (R)-3-[4-(1,1-difluoro-propyl)-benzylcarbamoyl]-4-(4-trifluoromethoxy-benzenesulfonyl)-3,4,5,6-tetrahydro-2H-[1,2′]bipyrazinyl-5′-carboxylic acid]", "values": [{"measurement": "IC50", "setting": "[1]", "value": "< 100", "unit": "nM"}, {"measurement": "IC50", "setting": "[2]", "value": "< 100", "unit": "nM"}]}, {"smiles": "CCC(F)(F)c1ccc(CNC(=O)[C@H]2CN(c3cnc(CO)cn3)CCN2S(=O)(=O)c2ccc(OC(F)(F)F)cc2)cc1", "note": "[Example 560, (R)-5′-hydroxymethyl-4-(4-trifluoromethoxy-benzenesulfonyl)-3,4,5,6-tetrahydro-2H-[1,2′]bipyrazinyl-3-carboxylic acid 4-(1,1-difluoro-propyl)-benzylamide]", "values": [{"measurement": "IC50", "setting": "[1]", "value": "< 100", "unit": "nM"}, {"measurement": "IC50", "setting": "[2]", "value": "< 100", "unit": "nM"}]}, {"smiles": "CCCc1ccc(CNC(=O)[C@H]2CN(c3nc4c(s3)CN(Cc3ccccc3)CC4)CCN2S(=O)(=O)c2ccc(OC(F)(F)F)cc2)cc1", "note": "[Example 561, (R)-4-(5-benzyl-4,5,6,7-tetrahydro-thiazolo[5,4-c]pyridin-2-yl)-1-(4-trifluoromethoxy-benzenesulfonyl)-piperazine-2-carboxylic acid 4-propyl-benzylamide]", "values": [{"measurement": "IC50", "setting": "[1]", "value": "< 100", "unit": "nM"}, {"measurement": "IC50", "setting": "[2]", "value": "< 100", "unit": "nM"}]}, {"smiles": "CCCc1ccc(CNC(=O)[C@H]2CN(c3nc(CO)c(CO)s3)CCN2S(=O)(=O)c2ccc(OC(F)(F)F)cc2)cc1", "note": "[Example 562, (R)-4-(4,5-bis-hydroxymethyl-thiazol-2-yl)-1-(4-trifluoromethoxy-benzenesulfonyl)-piperazine-2-carboxylic acid 4-propyl-benzylamide]", "values": [{"measurement": "IC50", "setting": "[1]", "value": "< 100", "unit": "nM"}, {"measurement": "IC50", "setting": "[2]", "value": "< 100", "unit": "nM"}]}, {"smiles": "CCCc1ccc(CNC(=O)[C@H]2CN(c3nc(C)ns3)CCN2S(=O)(=O)c2ccc(OC(F)(F)F)cc2)cc1", "note": "[Example 563, (R)-4-(3-methyl-[1,2,4]thiadiazol-5-yl)-1-(4-trifluoromethoxy-benzenesulfonyl)-piperazine-2-carboxylic acid 4-propyl-benzylamide]", "values": [{"measurement": "IC50", "setting": "[1]", "value": "< 100", "unit": "nM"}, {"measurement": "IC50", "setting": "[2]", "value": "< 100", "unit": "nM"}]}, {"smiles": "CCc1ccc(S(=O)(=O)N2CCN(c3cnc(C(=O)O)cn3)C[C@@H]2C(=O)NCc2ccc(C(F)(F)CC)cc2)cc1", "note": "[Example 564, (R)-3-[4-(1,1-difluoro-propyl)-benzylcarbamoyl]-4-(4-ethyl-benzenesulfonyl)-3,4,5,6-tetrahydro-2H-[1,2′]bipyrazinyl-5′-carboxylic acid]", "values": [{"measurement": "IC50", "setting": "[1]", "value": "< 100", "unit": "nM"}, {"measurement": "IC50", "setting": "[2]", "value": "< 100", "unit": "nM"}]}, {"smiles": "CCC(F)(F)c1ccc(CNC(=O)[C@H]2CN(C(=O)Nc3nc[nH]n3)CCN2S(=O)(=O)c2ccc(OC(F)(F)F)cc2)cc1", "note": "[Example 565, (R)-4-(4-trifluoromethoxy-benzenesulfonyl)-piperazine-1,3-dicarboxylic acid 3-[4-(1,1-difluoro-propyl)-benzylamide] 1-[(1H-[1,2,4]triazol-3-yl)-amide]]", "values": [{"measurement": "IC50", "setting": "[1]", "value": "< 100", "unit": "nM"}, {"measurement": "IC50", "setting": "[2]", "value": "100 to 1000", "unit": "nM"}]}]}
